From patent US7026489B2, “Ketol fatty acid derivative and plant growth regulating agents” (Shiseido Company, Ltd., priority 2000, dated 2006)

Assays:
[1] = test system: morning glory (Pharbitis nil); assay: Flower bud formation promoting activity of ketol fatty acid derivative II in morning glory (Example 6); format: in vivo; conditions: for flower bud formation promoting effect (number of flower buds per plant, % of control): sprayed at 1 μM onto cotyledons, 14 hours dark, counted on day 16, compound (4) at 1 μM and 100 μM, FIG. 6
Experimental: Seeds (9 g) of morning glory (variety name: Murasaki) were treated with concentrated sulfuric acid for 20 minutes, and then left to stand overnight under running water. Subsequently, the treated seeds were placed on wet sea sand for 24 hours, hilum side up, to thereby form roots. The seeds having roots were planted in sea sand to a depth of 1.5 cm to 2.0 cm, followed by culturing under continuous light (for approximately 5 days). The whole plants of the morning glory which had put forth leaves through the culture were transferred to a culture solution [KNO3 (250 mg), NH4NO3 (250 mg), KH2PO4 (250 mg), MgSO4.7H2O (250 mg), MnSO4.4H2O (1 mg), Fe-citrate n-hydrate (6 mg), H3BO3 (2 mg), CuSO4.5H2O (0.1 mg), ZnSO4.7H2O (0.2 mg), Na2MoO4.2H2O (0.2 mg), Ca(H2PO4)2.2H2O (250 mg)/distilled water (1,000 mL)]. While ketol fatty acid derivative (9) of the invention, which was obtained in the above Example 5, or test compounds such as Compound (4) was directly sprayed onto the cotyledons of the above morning glory plants grown in the culture system, the morning glory plants were subjected to treatment in the dark, then raised under the application of continuous light at 26° C. for 16 days. On day 16, the number of flower buds of the morning glory plants was counted (8 plants/group). The treatment in the dark was performed overnight (for 14 hours). In FIG. 6, along the X axis, (a) represents a control (a group of plants sprayed with distilled water), (b) represents a group of plants sprayed with ketol fatty acid derivative (9) (1 μM), (c) represents a group of plants sprayed with compound (4) (1 μM) and L-isoleusine (1 μM), (d) represents a group of plants sprayed with L-isoleusine (1 μM), (e) represents a group of plants sprayed with compound (4) (1 μM), and (f) represents a group of plants sprayed with compound (4) (100 μM). The Y axis represents flower bud formation promoting activity (shown as the percentage of each group to the control group (=100%) in terms of the number of flower buds per plant). […]

a broad range of plants = conditions: alone or in combination with norepinephrine; cited from earlier work
[2] = test system: morning glory (Pharbitis nil); assay: Flower bud formation promoting activity of compounds (4) and (5) in morning glory (Example 2); format: in vivo; conditions: sprayed onto cotyledons, 14 hours dark, counted on day 14; FIG. 3
Experimental: Seeds (9 g) of morning glory (variety name: Murasaki) were treated with concentrated sulfuric acid for 20 minutes, and then left to stand overnight under running water. Subsequently, the treated seeds were placed on wet sea sand for 24 hours, hilum side up, to thereby form roots. The seeds having roots were planted in sea sand to a depth of 1.5 cm to 2.0 cm, followed by culturing under continuous light (for approximately 5 days). The whole plants of the morning glory which had put forth leaves through the culture were transferred to a culture solution [KNO3 (250 mg), NH4NO3 (250 mg), KH2PO4 (250 mg), MgSO4.7H2O (250 mg), MnSO4.4H2O (1 mg), Fe-citrate n-hydrate (6 mg), H3BO3 (2 mg), CuSO4.5H2O (0.1 mg), ZnSO4.7H2O (0.2 mg), Na2MoO4.2H2O (0.2 mg), Ca(H2PO4)2.2H2O (250 mg)/distilled water (1,000 mL)]. Compound (4) or compound (5) was sprayed onto the cotyledons of the above morning glory plants at a spray volume of 2 mL per eight plants. The morning glory plants were subjected to treatment in the dark (14 hours), then raised under the application of continuous light at 26° C. for 14 days. On day 14, the number of flower buds of the morning glory plants was counted. As a control, distilled water was sprayed onto a group of plants. Compound (4) was sprayed at a concentration of 100 μM, whereas compound (5) was sprayed at concentrations of 0.001 μM to 100 μM.

CC[C@H](C)[C@H](N)C(=O)O [L-isoleucine, reference compound]
flower bud formation promoting effect (number of flower buds per plant, % of control) [1]: not observed

CC/C=C\C/C=C\CC(=O)C(O)CCCCCCCC(=O)O (centres unmarked) [compound (4), 9-hydroxy-10-oxo-12(Z),15(Z)-octadecadienoic acid]
flower bud formation promoting effect (a broad range of plants): exhibit flower bud formation promoting effect

CC/C=C\C[C@H]1[C@H](CC(=O)[C@H](O)CCCCCCCC(=O)O)O[C@@]2(O)CC13C(=CC2=O)NC[C@H]3O [compound (5), (9R)-11-{(2′S,8′S,10′S,11′R)-2′,8′-dihydroxy-7′-oxo-11′-[(Z)-2-pentenyl]-9′-oxa-4′-azatricyclo[6.3.1.0^1.5]dodec-5′-en-10′-yl}-9-hydroxy-10-oxoundecanoic Acid]
concentration exhibiting the same level of flower bud formation promoting activity as 100 μM compound (4) [2]: 0.01 µM

CC/C=C\C/C=C\CC(=O)C(O)CCCCCCCC(=O)NC(C(=O)O)C(C)CC [ketol fatty acid derivative (9), N-[9-hydroxy-10-oxo-12(Z),15(Z)-octadecadienoyl]-L-isoleucine]
flower bud formation promoting effect (number of flower buds per plant, % of control) [1]: equal or higher flower bud formation promoting effect as compared with compound (4) | optimum administration concentration for flower bud formation promoting activity ([1]; sprayed at 0.1 to 100 μM, FIG. 7): approximately 1 μM
